The text below walks through data of patent publication US10039761B2, “Co-crystals and pharmaceutical compositions comprising the same” (Vertex Pharmaceuticals Incorporated, priority 2013, dated 2018).

Data set [1] can be described thus: Body weight in OD26749 xenograft studies. The format is in vivo, nude mice. On the procedure: (§1) The in vivo efficacies of Compounds (1) and (2) in combination with whole body IR were examined in the OD26749 primary NSCLC (non-small cell lung cancer) and the OE-19 GEJ cell line xenograft models. In these studies, Compounds (1) and (2) were formulated with 16% captisol/1% PVP/1% HPMC E5 pH2.
The in vivo efficacy of Compound (1) was evaluated in the primary OD26749 NSCLC subcutaneous xenograft model. […] Efficacy was evaluated using a regimen in which 2-Gy whole body IR was administered twice, one week apart. Compound (1) was administered PO (tid at 0, 3, and 7 h) at 100 mg/kg alone or with a single 2 Gy dose of whole body IR at 3.25 h. Seven days later, the same regimens were repeated. Compound (1) in combination with 2 Gy whole body IR induced significant tumor regression (% T/Ti of −75; P<0.01) compared to IR alone.
The efficacies of Compounds (1) and (2) in combination with whole body IR (2 Gy) were evaluated in the OD26749 primary NSCLC xenograft model at a Compound (1) dose level of 100 mg/kg PO bid (0 and 4 h) and Compound (2) dose levels of 50 mg/kg and 100 mg/kg PO bid (0 and 4 h). Two cycles of whole body IR (2 Gy) were given 15 min after the first compound administration (0.25 hour). Control animals were administered vehicle PO bid (0 and 4 h). Two cycles of treatment were performed on Day 0 and Day 7.

Data set [2] deals with OE-19 GEJ cell line xenograft. The data set is described as follows: OE-19 GEJ cell line xenograft efficacy with whole body IR. The class given is in vivo. The method, then: as §1
The OE-19 cell line xenograft model was used to evaluate the efficacy of Compounds (1) and (2) alone and in combination with IR. Two cycles of treatment were administered (Day 0 and Day 7) as performed in the OD26749 model above.
In Tables 14 and 15, for example, PO bid (0, 4 h) indicates Compound (2) is administered twice (bid) at time point 0 and then 4 hours after; IR (0.25 h) qdx3 indicates radiation is administered 15 minutes (0.25 h) after the administration of Compound (2) (0 h), and once a day for 3 days (qdx3); q7dx2 indicates once a week for two weeks; qod indicates every other day twice (e.g., Day 1 and Day 3); and paclitaxel q7dx3 (−0.25 h), carboplatin q7dx3 (−0.25 h) indicates administration of paclitaxel and carboplatin 15 minutes prior to the administration of Compound (2), followed by additional administration of Compound (2) after 4 hours after the first administration of Compound (2).

Data set [3] deals with HFL1. The data set is described as follows: Combination with etoposide, viability (Bliss analysis). Particulars: Compound (2) with etoposide; n = 3. The format is cell-based, human. On the procedure:
(§2) The cell-based experiments and assays were performed with either molecule but not always with both. Compounds (1) and (2) were generally very similar in those assays and experiments. Analysis of the combination experiments was performed using two methods: the Bliss Additivity model and the Mixtures Blend method to determine the degree of synergy, additivity, or antagonism. In the Bliss method, a matrix of Bliss scores was generated for each cell line and treatment, and a sum of the Bliss values over the range of combination concentrations tested was calculated. […] Larger average Bliss values indicate greater confidence in reporting synergy, and smaller scores indicate greater confidence in reporting antagonism. In the Mixtures Blend method combinants were added in a range of optimal ratios using design of experiment (DOE) software (DX-8 from STAT-EASE); the cells were irradiated with 2 Gy as required. Synergy was determined using statistical analysis of the data (ANOVA) to indicate linear (additivity) or statistically significant (p<0.1) non-linear (antagonism or synergy) mixes of the combinants.

The test system of data set [4] is MDA-MB-436. The data set is described as follows: Doxorubicin combination in triple negative breast cancer cells. The format is cell-based. Particulars: Compound (2) with doxorubicin, BRCA mutant. The method, then:
as §2

The subject of data set [5] is MDA-MB-468. Described as above. The format is cell-based. As to conditions: Compound (2) with doxorubicin, BRCA wild-type. On the procedure:
as §2

The test system of data set [6] is HCC-1937. The data set is described as above. The class given is cell-based. As to conditions: Compound (2) with doxorubicin, BRCA mutant. The method, then:
as §2

In data set [7] the test system is HCC-1599. The data set is described as above. The format is cell-based. Particulars: Compound (2) with doxorubicin; plating density unknown; BRCA mutant. On the procedure:
as §2

In data set [8] the test system is HCC-1395. The data set is described as above. The format is cell-based. Particulars: Compound (2) with doxorubicin; plating density 5000; BRCA mutant. On the procedure: as §2
Data set [9] relates to ESO26. The data set is described as follows: Combination with etoposide, viability (Bliss analysis). The format is cell-based. Particulars: Compound (2) with etoposide; n = 3. The method, then: as §2
In data set [10] the test system is A549. The description is as above. Particulars: Compound (2) with etoposide; n = 1. The class given is cell-based. The method, then: as §2
The test system of data set [11] is ESO26 (GEJ) cancer cell line. The data set is described as follows: Combination with genotoxic agents, viability (Mixtures analysis). Particulars: single agent IC50 on which the mixtures were based. The format is cell-based. The method, then:
as §2

Data set [12] is described as follows: Blood exposure in ST-02-0004 study. The class given is in vivo. The method, then:
(§3) The anti-tumor activity of Compound (2) in combination with focused-beam IR and the standard of care agents, paclitaxel and carboplatin, was also evaluated in the ST 02 0004 model. Treatment with paclitaxel, carboplatin, and IR was administered once per week for three weeks alone or in combination with Compound (2). […] Further, the 50 and 25 mg/kg Compound (2), paclitaxel/carboplatin, IR combination groups were statistically different (P<0.05) from the paclitaxel/carboplatin, paclitaxel/carboplatin/50 mg/kg Compound (2), and paclitaxel/carboplatin/IR groups. Compound (2) blood exposures were 9.3 and 27 μg*h/mL for the 25 and 50 mg/kg Compound (2) bid groups, respectively.

A short description of data set [13]: Body weight in ST-02-0004 xenograft studies. Particulars: in vivo, po, 25 mg/kg. On the procedure: The in vivo activities of Compounds (1) and (2) were compared in combination with focused beam IR in a primary gastric cancer subcutaneous xenograft model. In the ST 02 0004 model, focused IR was administered on three consecutive days alone and in combination with Compound (1) or Compound (2). […] For all experimental groups, treatment was generally well tolerated as evidenced by maximum body weight losses ranging from −8.06% to −10.0% 10 to 48 days after treatment initiation
as §3

`CNC(=O)c1ccnc2c([C@H](C)CNc3cc(-c4cnc(C)nc4)ncn3)cccc12` [Compound (1), (S)-N-methyl-8-(1-((2′-methyl-[4,5′-bipyrimidin]-6-yl)amino)propan-2-yl)quinoline-4-carboxamide]: the “Max. body wt loss (%)” value in data set [1] (PO 25 mg/kg bid (0, 4 h), 2 Gy IR ([…]) q7dx2, Day 8) is −7.70%; in data set [1] (PO 50 mg/kg bid (0, 4 h), 2 Gy IR ([…]) q7dx2, Day 8), −5.50%; in data set [1] (PO 100 mg/kg bid (0, 4 h), 2 Gy IR ([…]) q7dx2, Day 8), −3.70%; in [1] (PO 100 mg/kg tid (0, 3, 7 h) q7dx2, no IR), “weight gain”; in data set [1] (PO 100 mg/kg tid (0, 3, 7 h) qdx1, 2 Gy qdx1 (3.25 h), Day 2), −9.70%; in [1] (PO 100 mg/kg tid (0, 3, 7 h) qdx1, no IR, Day 2), −2.40%. Also, in data set [1] (PO 200 mg/kg qd, 2 Gy IR ([…]) q7dx2, Day 1), the “Max. body wt loss (%)” value is reported as −6.10%. The tumor growth entry in data set [2] (Compound (1) in combination with 2 Gy whole body IR) was “significantly inhibited tumor growth”. Also, the “% T/C (Day 18)” value in data set [2] (PO 100 mg/kg bid (0, 4 h) qd7x2, 2 Gy IR qd7x2 ([…]) whole body) is given as 24.0%; in data set [2] (PO 100 mg/kg bid (0, 4 h) qd7x 2, no IR) it was 79.0%.
Consider `[2H]c1nc(C)nc([2H])c1-c1cc(NC[C@@H](C)c2cccc3c(C(=O)NC)ccnc23)ncn1` [Compound (2), (S)-N-methyl-8-(1-((2′-methyl-4′,6′-dideutero-[4,5′-bipyrimidin]-6-yl)amino)propan-2-yl)quinoline-4-carboxamide], for which the “Average Bliss score” value was 8.7 ± 5.6 (n = 3) in [3]; 14.5 in [4] (plating density 5000); 14.4 in data set [4] (plating density 20000); 23.1 in [5] (plating density 5000); 24.7 in data set [5] (plating density 20000); 16.6 in data set [6] (plating density 5000). The “Average Bliss score” value in data set [6] (plating density 20000) is on record as 15.6; in data set [7] it was 14.3; in data set [8] it was 11.1; in data set [9] it was 43.2 ± 6.5 (n = 3); in data set [10], 27.3 (n = 1). In addition, the IC50 (usually the concentration that gives 50% inhibition) in [11] stood at 20 µM. Further, the values for the blood exposure in [12] (25 mg/kg Compound (2) bid group) and in data set [12] (50 mg/kg Compound (2) bid group) were 9.3 µg·h/mL and 27 µg·h/mL, respectively. Moreover, in data set [13], the “Max. body wt loss (%)” value is −6.73%.
